The target of experiment [1] is T1, BA/F3-FLT3-ITD + D835Y cells (Homo sapiens, UniProt P36888, D835Y, cells depend on it, form not given).
T1 sequence (P36888 1-993 D835Y): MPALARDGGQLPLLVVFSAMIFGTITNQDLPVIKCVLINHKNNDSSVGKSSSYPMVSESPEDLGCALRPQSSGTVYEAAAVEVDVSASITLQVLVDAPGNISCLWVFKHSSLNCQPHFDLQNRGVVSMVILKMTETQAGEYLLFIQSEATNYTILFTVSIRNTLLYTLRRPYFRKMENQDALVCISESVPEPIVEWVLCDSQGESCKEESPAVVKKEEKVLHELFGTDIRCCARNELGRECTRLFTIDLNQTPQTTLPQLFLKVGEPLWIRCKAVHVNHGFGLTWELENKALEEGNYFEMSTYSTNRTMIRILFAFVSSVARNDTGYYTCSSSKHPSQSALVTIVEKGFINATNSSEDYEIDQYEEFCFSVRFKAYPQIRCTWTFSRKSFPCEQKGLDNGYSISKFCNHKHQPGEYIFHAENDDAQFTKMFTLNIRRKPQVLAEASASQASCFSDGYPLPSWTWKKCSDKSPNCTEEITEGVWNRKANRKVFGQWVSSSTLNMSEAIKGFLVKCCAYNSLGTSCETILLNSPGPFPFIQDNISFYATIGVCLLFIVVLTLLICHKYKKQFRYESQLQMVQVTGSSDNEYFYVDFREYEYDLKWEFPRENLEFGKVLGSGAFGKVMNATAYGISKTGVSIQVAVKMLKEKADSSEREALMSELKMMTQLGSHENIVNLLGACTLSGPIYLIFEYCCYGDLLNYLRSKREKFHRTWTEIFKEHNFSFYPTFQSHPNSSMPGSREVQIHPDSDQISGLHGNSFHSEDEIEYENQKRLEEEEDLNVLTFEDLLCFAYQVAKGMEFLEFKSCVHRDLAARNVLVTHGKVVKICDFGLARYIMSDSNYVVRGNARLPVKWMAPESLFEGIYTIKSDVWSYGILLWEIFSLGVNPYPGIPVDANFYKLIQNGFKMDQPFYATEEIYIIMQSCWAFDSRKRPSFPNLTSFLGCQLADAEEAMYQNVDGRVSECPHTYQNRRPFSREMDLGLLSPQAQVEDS
Kind of experiment: Cell proliferation assay (CellTiter-Glo), engineered BA/F3 cells. It is filed as cell-based, murine. As to conditions: BaF3 FLT3 ITD/D835Y cells, 3d-Growth; read-out: BaF3_FLT3 ITD/D835Y 3d-Growth: IC50. Put shortly: (§1)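 MOLM-14 AML cells (endogenous FLT3 ITD, AC220-selected D835Y or F691L variants) or murine Ba/F3 expressing full-length FLT3 ITD/D835Y, without IL-3 for FLT3 dependence, 1×10^4 cells/well. Eight-point 1:3 series from 1 μM final, 0.2% DMSO, 3 days at 37 °C. CellTiter-Glo luminescence (ATP) gave IC50.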
On the technique in general: In ATP-based viability assays light output follows the ATP content of the culture.

The test system of experiment [2] is MOLM-14 D835Y cells, FLT3 ITD and FLT3 D835Y. Kind of experiment: Cell proliferation assay (CellTiter-Glo), MOLM-14 D835Y. It counts as cell-based. The note with it: Homo sapiens, 72 h, 3d-Growth, GMean. In short, it runs like this:
as §1

The structures appear in SMILES notation. pIC50: −log10 of the molar value.

Broadly, the pIC50 is the negative decadic logarithm of the IC50, by convention in mol/L. High values mean a small IC50, low ones a large IC50. For `O=C(Nc1cccc(-c2cnc3[nH]c(-c4ccccc4)cc3c2)n1)C1CNC1` [Compound P-0084, N-[6-(2-phenyl-1H-pyrrolo[2,3-b]pyridin-5-yl)-2-pyridyl]azetidine-3-carboxamide], the GI50 in experiment [1] lay in the range of 0.0001 to 10 µM. This compound also showed a pIC50 in experiment [2] of 5.00 to 10.00.

In the case of `O=C(c1cccc(-c2cnc3[nH]c(-c4ccccc4)cc3c2)n1)N1CCC(NC2CC2)C1` (stereo not drawn) [Compound P-0085, [3-(cyclopropylamino)pyrrolidin-1-yl]-[6-(2-phenyl-1H-pyrrolo[2,3-b]pyridin-5-yl)-2-pyridyl]methanone], in experiment [1], the GI50 was in the range of 0.0001 to 10 µM. Moreover, the pIC50 in experiment [2] is 5.00 to 10.00.

Take `O=S(=O)(NC1CCNCC1)c1cccc(-c2cnc3[nH]c(-c4ccccc4)cc3c2)n1` [Compound P-0086, 6-(2-phenyl-1H-pyrrolo[2,3-b]pyridin-5-yl)-N-(4-piperidyl)pyridine-2-sulfonamide]: the GI50 in experiment [1] was 0.0001 to 10 µM. Further, in experiment [2], the pIC50 was 5.00 to 10.00.

Regarding `NC1CCC(NS(=O)(=O)c2cccc(-c3cnc4[nH]c(-c5ccccc5)cc4c3)n2)CC1` (stereo not drawn) [Compound P-0088, N-(4-aminocyclohexyl)-6-(2-phenyl-1H-pyrrolo[2,3-b]pyridin-5-yl)pyridine-2-sulfonamide], the GI50 in experiment [1] is 0.0001 to 10 µM. Besides, the pIC50 in experiment [2] is 5.00 to 10.00.

In the case of `O=C(c1cccc(-c2cnc3[nH]c(-c4ccccc4)cc3c2)n1)N1CC(F)(F)C1` [Compound P-0090, (3,3-difluoroazetidin-1-yl)-[6-(2-phenyl-1H-pyrrolo[2,3-b]pyridin-5-yl)-2-pyridyl]methanone], in experiment [1], the GI50 lay in the range of 0.0001 to 10 µM. In experiment [2], the pIC50 is 5.00 to 10.00.

Regarding `COC1CN(C(=O)c2cccc(-c3cnc4[nH]c(-c5ccccc5)cc4c3)n2)C1` [Compound P-0091, (3-methoxyazetidin-1-yl)-[6-(2-phenyl-1H-pyrrolo[2,3-b]pyridin-5-yl)-2-pyridyl]methanone], the GI50 in experiment [1] lay within 0.0001 to 10 µM. The compound also showed a pIC50 in experiment [2] of 5.00 to 10.00.

The values above are taken from patent US9938273B2 (Plexxikon Inc., priority 2015, dated 2018).
